Reference: US9782415B2, “Substituted pyrazolo[1,5-a]pyrimidine compounds as Trk kinase inhibitors” (Array BioPharma, Inc., priority 2009, dated 2017)
Read-outs that look alike come from different tables or passages of the source. Each block holds one molecule with its values, some of them ahead of it.

Legend:
Type in all cases: biochemical
[1] = target: histidine-tagged recombinant human TrkA, cytoplasmic domain (Homo sapiens (Human), UniProt P04629); assay: TrkA ELISA Assay; settings: Table 1, 500 μM ATP, read-out: TrkA Enzyme IC50
Protocol: An enzyme-linked immunosorbant assay (ELISA) was used to assess TrkA kinase activity in the presence of inhibitors. […] The assay buffer consisted of 25 mM MOPS pH 7.5, 0.005% (v/v) Triton X-100 and 5 mM MgCl2. The reaction mixture was removed from the plate by washing with PBS containing 0.1% (v/v) Tween 20. […] After the addition of 1M phosphoric acid, the chromogenic substrate color intensity was quantitated via absorbance at 450 nm.

Human Jak2 kinase domain = Human Jak2 kinase domain (Homo sapiens (Human), UniProt O60674); assay: Jak2 Inhibition Assay (Omnia kinase assay)
From the text: The assays described in Examples C, D, E and F for the determination of JAK1, JAK2, JAK3 and Tyk2 kinase activity, respectively, utilized the Omnia® Kinase fluorescence peptide substrate-based technology (Invitrogen). The specific components of the assay mixture are described in Examples C, D and E. […] Two-μL aliquots of these were transferred to a fresh plate for a ten-fold intermediate dilution with assay buffer. […] Human Jak2 kinase domain comprising amino acids 808-1132 was purchased from Invitrogen Corporation, Carlsbad, Calif.

Human Tyk2 kinase domain = Human Tyk2 kinase domain (Homo sapiens (Human), UniProt P29597); assay: Tyk2 Inhibition Assay (Omnia kinase assay); settings: Table 2; 500 μM ATP
Protocol: (§1) The assays described in Examples C, D, E and F for the determination of JAK1, JAK2, JAK3 and Tyk2 kinase activity, respectively, utilized the Omnia® Kinase fluorescence peptide substrate-based technology (Invitrogen). […] The reactions were therefore read at excitation 360 nm and emission was measured at 485 nm every 50 seconds for 45 minutes using a PerkinElmer EnVision Multilabel Plate Reader.
(§2) The final buffer conditions for each of the JAK1, JAK2, JAK3 and Tyk2 assays were as follows: 25 mM HEPES, pH 7.4, 10 mM MgCl2, 0.01% Triton X-100 and 1 mM DTT.
(§3) Compounds were prepared at 50× the final concentration in DMSO by conducting 3-fold serial dilutions from a 500-μM or 1000-μM intermediate dilution to give a 10-point dosing curve having a high dose of 10 or 20 μM. Two-μL aliquots of these were transferred to a fresh plate for a ten-fold intermediate dilution with assay buffer. Five-μL aliquots of the diluted compounds were then transferred to 20-μL of assay mixtures described in Examples C, D, E and F for a final concentration of DMSO of 2%. A standard or reference compound was typically included on each assay plate to validate that plate. For each plate, percent of control (POC) values were calculated for each well according to the following equation: […]
(§4) IC50's were estimated from the POC's using a standard 4-parameter logistic model: […]

[2] = target: GST-tagged human Jak3 kinase domain (Homo sapiens (Human), UniProt P52333); assay: Jak3 Inhibition Assay (Omnia kinase assay); settings: Table 2; 500 μM ATP
Protocol: as §1, §2, §3, §4

[3] = target: GST-tagged human Jak1 kinase domain (Homo sapiens (Human), UniProt P23458); assay: Jak1 Inhibition Assay (Omnia kinase assay); settings: Table 2; 500 μM ATP
Protocol: as §1, §2, §3, §4

[4] = read-out: Jak2 Enzyme % inhibition at 1000 nM, Table 1, 1000 nM test compound

Chain of Human Jak2 kinase domain (O60674 808-1132): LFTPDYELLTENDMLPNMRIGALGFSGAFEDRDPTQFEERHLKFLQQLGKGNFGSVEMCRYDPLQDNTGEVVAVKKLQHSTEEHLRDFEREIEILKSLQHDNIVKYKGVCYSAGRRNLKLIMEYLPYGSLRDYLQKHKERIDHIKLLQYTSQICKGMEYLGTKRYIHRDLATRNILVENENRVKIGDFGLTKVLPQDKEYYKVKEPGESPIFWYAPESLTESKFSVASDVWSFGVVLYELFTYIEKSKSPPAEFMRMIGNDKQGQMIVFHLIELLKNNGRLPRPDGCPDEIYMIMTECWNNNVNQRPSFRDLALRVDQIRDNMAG
Chain of Human Tyk2 kinase domain (P29597 886-1187): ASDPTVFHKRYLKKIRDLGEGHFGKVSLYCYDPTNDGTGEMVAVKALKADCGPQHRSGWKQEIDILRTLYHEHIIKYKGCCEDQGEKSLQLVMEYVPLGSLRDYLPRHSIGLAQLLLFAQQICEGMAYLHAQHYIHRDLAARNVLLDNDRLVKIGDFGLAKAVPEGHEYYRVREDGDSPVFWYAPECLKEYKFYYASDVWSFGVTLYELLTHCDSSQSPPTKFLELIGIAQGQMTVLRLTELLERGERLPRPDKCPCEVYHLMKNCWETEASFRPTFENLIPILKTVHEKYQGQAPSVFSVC
Chain of GST-tagged human Jak3 kinase domain (P52333 781-1124): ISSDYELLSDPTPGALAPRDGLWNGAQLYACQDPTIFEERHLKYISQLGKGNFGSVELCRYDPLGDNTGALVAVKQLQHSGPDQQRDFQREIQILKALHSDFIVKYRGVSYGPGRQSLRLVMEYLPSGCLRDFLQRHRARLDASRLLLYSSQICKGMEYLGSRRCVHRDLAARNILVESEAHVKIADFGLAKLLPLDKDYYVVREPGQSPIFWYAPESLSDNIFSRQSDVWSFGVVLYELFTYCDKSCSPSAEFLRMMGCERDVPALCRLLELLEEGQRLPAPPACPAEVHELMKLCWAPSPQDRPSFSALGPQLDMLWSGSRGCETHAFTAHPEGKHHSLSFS
Chain of histidine-tagged recombinant human TrkA, cytoplasmic domain (P04629 440-796): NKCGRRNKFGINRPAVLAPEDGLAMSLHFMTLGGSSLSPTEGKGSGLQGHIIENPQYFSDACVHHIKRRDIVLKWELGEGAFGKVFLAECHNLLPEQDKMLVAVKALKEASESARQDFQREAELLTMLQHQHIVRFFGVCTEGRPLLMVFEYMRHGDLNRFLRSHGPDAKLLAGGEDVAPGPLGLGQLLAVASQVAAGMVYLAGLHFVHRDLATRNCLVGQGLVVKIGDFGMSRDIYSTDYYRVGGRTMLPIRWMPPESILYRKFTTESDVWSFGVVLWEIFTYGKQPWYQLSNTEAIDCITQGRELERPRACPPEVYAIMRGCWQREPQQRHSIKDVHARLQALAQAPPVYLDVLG
Chain of GST-tagged human Jak1 kinase domain (P23458 866-1154): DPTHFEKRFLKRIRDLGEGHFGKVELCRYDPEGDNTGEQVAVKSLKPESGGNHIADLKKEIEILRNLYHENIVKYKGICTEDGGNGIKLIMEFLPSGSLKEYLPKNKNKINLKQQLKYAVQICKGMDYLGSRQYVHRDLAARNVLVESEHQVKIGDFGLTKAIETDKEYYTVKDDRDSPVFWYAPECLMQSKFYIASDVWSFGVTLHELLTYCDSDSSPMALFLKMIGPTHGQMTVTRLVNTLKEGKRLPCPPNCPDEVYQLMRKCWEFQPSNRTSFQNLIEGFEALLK

SMILES: Cc1ncc(F)cc1[C@H]1CCCN1c1ccn2ncc(C(=O)N[C@@H]3CCC[C@H]3O)c2n1 [Example 197, 5-((R)-2-(5-fluoro-2-methylpyridin-3-yl)pyrrolidin-1-yl)-N-((1R,2R)-2-hydroxycyclopentyl)pyrazolo[1,5-a]pyrimidine-3-carboxamide]
IC50 [1]: 4.8 nM
IC50 (Human Jak2 kinase domain; Table 1, 500 μM ATP, >1000 nM when >50% inhibition not observed at 1000 nM, read-out: Jak2 Enzyme IC50): > 1000 nM

SMILES: O=C(N[C@@H]1C2CC[C@@H](C2)[C@@H]1CO)c1cnn2ccc(N3CCC[C@@H]3c3cncc(F)c3)nc12 [Example 138, 5-((R)-2-(5-fluoropyridin-3-yl)pyrrolidin-1-yl)-N-((2R,3S,4S)-3-(hydroxymethyl)bicyclo[2.2.1]heptan-2-yl)pyrazolo[1,5-a]pyrimidine-3-carboxamide]
inhibition at 1 µM (Human Jak2 kinase domain; read-out: Jak2 Enzyme % inhibition at 1000 nM): 10%

SMILES: COc1ncc(F)cc1[C@H]1CCCN1c1ccn2ncc(C(=O)N[C@H]3CC[C@H](O)CC3)c2n1 [Example 140, 5-((R)-2-(5-fluoro-2-methoxypyridin-3-yl)pyrrolidin-1-yl)-N-((trans)-4-hydroxycyclohexyl)pyrazolo[1,5-a]pyrimidine-3-carboxamide]
IC50 (Human Tyk2 kinase domain): > 1000 nM

Now from value to molecule:

inhibition at 1 µM (Human Jak2 kinase domain; [4]): 13.8%
SMILES: O=C(N[C@H]1CC[C@@H](O)CC1)c1cnn2ccc(N3CCC[C@@H]3c3cncc(F)c3)nc12 [Example 100, 5-((R)-2-(5-fluoropyridin-3-yl)pyrrolidin-1-yl)-N-((cis)-4-hydroxycyclohexyl)pyrazolo[1,5-a]pyrimidine-3-carboxamide]

IC50 (Human Tyk2 kinase domain): > 1000 nM
IC50 [2]: > 1000 nM
IC50 [3]: > 1000 nM
SMILES: Cc1ncc(F)cc1[C@H]1CCCN1c1ccn2ncc(C(=O)N[C@H]3CC[C@H](O)CC3)c2n1 [Example 194, 5-((R)-2-(5-fluoro-2-methylpyridin-3-yl)pyrrolidin-1-yl)-N-((trans)-4-hydroxycyclohexyl)pyrazolo[1,5-a]pyrimidine-3-carboxamide]

inhibition at 1 µM (Human Jak2 kinase domain; [4]): 45.8%
SMILES: O=C(N[C@H]1CC[C@H](O)CC1)c1cnn2ccc(N3CCC[C@@H]3c3cncc(F)c3)nc12 [Example 99, 5-((R)-2-(5-fluoropyridin-3-yl)pyrrolidin-1-yl)-N-((trans)-4-hydroxycyclohexyl)pyrazolo[1,5-a]pyrimidine-3-carboxamide]
